Like-named read-outs stand apart in the source and are kept apart here.
Experiments:
[1] = biological target: T1, rat MCH 1 receptor (rMCH1R) (Rattus norvegicus, UniProt P97639); test: 125I-MCH ligand binding assay, rMCH; settings: HEK 293 membranes, 0.2 nM 125I native-MCH, read-out: IC50 in the rMCH binding assay
T1 construct: expressed in transfected cells; host or cells: HEK 293 (membranes)
Experimental: (§1) Human embryonic kidney cells (293 total) expressing either human, rat, or mouse MCH receptor were harvested from 150 mm culture dishes using PBS. Spinning at 1500 rpm for 2 minutes initially pelleted cells. The resulting pellet was then homogenized in 15 mL ice cold sucrose buffer (25 mM HEPES, 0.3 M sucrose, pH 7.4) with a motorized, glass fitted, Teflon® homogenizer. The homogenate was centrifuged at 48,000×g at 4° C. for 10 minutes, resuspended in 15 mL assay buffer (25 mM HEPES, 10 mM mgCl2, 0.2% BSA, 0.1 mg/mL STI, 0.1 mg/mL Pefabloc®, 1 μM Phosphoramidon, pH 7.4) with a Tissue-Tearor® (Biospec Products) and centrifuged again at 48,000×g for 10 minutes. The pellet was homogenized for a third time in 15 mL assay buffer using the Tissue-Tearor® and again centrifuged at 48,000×g for 10 minutes. The resulting pellet was resuspended in assay buffer at a wet weight concentration of 10-20 mg/mL.
(§2) Binding assays were determined as described below using mouse, rat or human MCH 1 receptors (mMCH1R, rMCH1R, and hMCH1R, respectively) expressed in HEK 293; IC50 values were calculated.
(§3) Binding assays were performed in 96-well U-bottom plates. Membranes (100 μg tissue) were incubated at 30° C. for 90 minutes in assay buffer with various peptides in the presence of 0.2 nM ^125I native-MCH (Perkin-Elmer Life Sciences, Boston, Mass.) in 100 μL total volume. Non-specific binding was assessed in the presence of 1 μM cold native-MCH. The reaction was terminated by rapid filtration through Unfilter-96 GF/C glass fiber filter plates (FilterMate® 196 Harvester, Packard Instrument Co., Meriden, Conn.) pre-soaked in PBS/0.5% BSA, followed by three washes with 300 μL ice-cold water. Bound radioactivity was determined using a TopCount® microplate scintillation and luminescence counter (Packard Instrument Co., Meriden, Conn.). Nonlinear regression analyses of drug concentration curves were performed using GraphPad Prism® (GraphPad Software, Inc., San Diego, Calif.).

[2] = biological target: T2, human MCH 1 receptor (hMCH1R) (Homo sapiens, UniProt Q99705); test: 125I-MCH ligand binding assay, hMCH; settings: HEK 293 membranes, 0.2 nM 125I native-MCH, read-out: IC50 in the hMCH binding assay
T2 construct: expressed in transfected cells; host or cells: HEK 293 (membranes)
T2 sequence (Q99705 whole entry): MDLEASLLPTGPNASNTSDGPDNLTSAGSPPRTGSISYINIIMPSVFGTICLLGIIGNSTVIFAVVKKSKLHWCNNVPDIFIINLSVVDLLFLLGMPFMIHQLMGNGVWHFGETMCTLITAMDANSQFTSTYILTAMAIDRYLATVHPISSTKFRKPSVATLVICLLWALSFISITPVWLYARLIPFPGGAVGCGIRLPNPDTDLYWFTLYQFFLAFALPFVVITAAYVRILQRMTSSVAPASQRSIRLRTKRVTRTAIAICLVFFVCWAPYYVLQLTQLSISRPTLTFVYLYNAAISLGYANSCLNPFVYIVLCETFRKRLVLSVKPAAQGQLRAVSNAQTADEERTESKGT
Experimental: as §1, §2, §3

T1 sequence (P97639 whole entry): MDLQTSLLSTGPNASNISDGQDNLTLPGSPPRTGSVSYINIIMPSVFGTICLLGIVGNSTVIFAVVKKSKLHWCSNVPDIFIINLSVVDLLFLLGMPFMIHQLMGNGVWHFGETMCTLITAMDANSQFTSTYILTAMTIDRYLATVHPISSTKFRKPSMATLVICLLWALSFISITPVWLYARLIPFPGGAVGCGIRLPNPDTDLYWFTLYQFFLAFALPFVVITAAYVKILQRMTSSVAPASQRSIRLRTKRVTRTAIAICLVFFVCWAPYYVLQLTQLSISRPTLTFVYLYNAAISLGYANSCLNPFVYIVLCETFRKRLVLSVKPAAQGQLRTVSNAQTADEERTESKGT

| SMILES | IC50 ([1]; 100 μM or less list) | IC50 ([2]; 100 μM or less list) | IC50 ([1]; 100 nM or less list) | IC50 ([2]; 100 nM or less list) |
| --- | --- | --- | --- | --- |
| CC(C)(C)CC(C)(C)n1nnnc1[C@H](c1ccccc1)N1CCN(C/C=C/c2ccccc2)CC1 (racemic) [Compound 22, 1-(3-phenylallyl)-4-{phenyl-[1-(1,1,3,3-tetramethylbutyl)-1H-tetrazol-5-yl]methyl}piperazine] | ≤ 100 µM | ≤ 100 µM | – | – |
| O=C1CCCN1CCCn1nnnc1[C@H](c1ccccc1)N1CCN(C/C=C/c2ccccc2)CC1 (racemic) [Compound 36, 1-[3-(5-{phenyl-[4-(3-phenylallyl)piperazin-1-yl]methyl}tetrazol-1-yl)propyl]pyrrolidin-2-one] | ≤ 100 µM | ≤ 100 µM | – | – |
| CCOC(=O)Cn1nnnc1[C@H](c1ccccc1)N1CCN(C/C=C/c2ccccc2)CC1 (racemic) [Compound 21] | ≤ 100 µM | ≤ 100 µM | – | – |
| COC(=O)C(Cc1c[nH]c2ccccc12)n1nnnc1[C@H](c1ccccc1)N1CCN(C/C=C/c2ccccc2)CC1 (stereo in doubt) [Compound 31, 3-(1H-indol-3-yl)-2-(5-{phenyl-[4-(3-phenylallyl)piperazin-1-yl]methyl}tetrazol-1-yl)propionic acid methyl ester] | ≤ 100 µM | ≤ 100 µM | – | – |
| CCCCn1nnnc1[C@H](c1ccccc1)N1CCN(C/C=C/c2ccccc2)CC1 (racemic) [Compound 17, 1-[(1-butyl-1H-tetrazol-5-yl)phenylmethyl]-4-(3-phenylallyl)piperazine] | – | ≤ 100 µM | – | – |
| FC(F)(F)c1cccc([C@@H](c2nnnn2-c2c(Cl)cccc2Cl)N2CCN(C/C=C/c3ccccc3)CC2)c1 (racemic) [Compound 164, 1-[[1-(2,6-dichlorophenyl)-1H-tetrazol-5-yl]-(3-trifluoromethylphenyl)methyl]-4-(3-phenylallyl)piperazine] | ≤ 100 µM | ≤ 100 µM | – | – |
| C(=C\c1ccccc1)/CN1CCN([C@@H](c2ccccc2)c2nnnn2CCCN2CCOCC2)CC1 (racemic) [Compound 42] | – | ≤ 100 µM | – | – |
| Clc1ccc(Cn2nnnc2[C@H](c2ccccc2)N2CCN(C/C=C/c3ccccc3)CC2)cc1Cl (racemic) [Compound 30, 1-{[1-(3,4-dichlorobenzyl)-1H-tetrazol-5-yl]phenylmethyl}-4-(3-phenylallyl)piperazine] | ≤ 100 µM | ≤ 100 µM | – | – |
| CC(C)n1nnnc1[C@H](c1ccccc1)N1CCN(C/C=C/c2ccccc2)CC1 (racemic) [Compound 19, 1-[(1-isopropyl-1H-tetrazol-5-yl)phenylmethyl]-4-(3-phenylallyl)piperazine] | ≤ 100 µM | ≤ 100 µM | – | – |
| COC(=O)C(Cc1ccccc1)n1nnnc1[C@H](c1ccccc1)N1CCN(C/C=C/c2ccccc2)CC1 (stereo in doubt) [Compound 26, 3-phenyl-2-(5-{phenyl-[4-(3-phenylallyl)piperazin-1-yl]methyl}tetrazol-1-yl)propionic acid methyl ester] | ≤ 100 µM | ≤ 100 µM | – | – |
| Cc1cccc(C)c1-n1nnnc1[C@H](c1ccc(-c2cccc(C(F)(F)F)c2)o1)N1CCN(C/C=C/c2ccccc2)CC1 (racemic) [Compound 68, 1-{[1-(2,6-dimethylphenyl)-1H-tetrazol-5-yl]-[5-(3-trifluoromethylphenyl)furan-2-yl]methyl}-4-(3-phenylallyl)piperazine] | ≤ 100 µM | ≤ 100 µM | – | – |
| CC(C)(C)n1nnnc1[C@H](c1ccccc1)N1CCN(C/C=C/c2ccccc2)CC1 (racemic) [Compound 14, 1-[(1-tert-butyl-1H-tetrazol-s-yl)phenylmethyl]-4-(3-phenylallyl)piperazine] | ≤ 100 µM | ≤ 100 µM | – | – |
| Cc1cccc(C)c1-n1nnnc1[C@H](c1cccc(C(F)(F)F)c1)N1CCN(C/C=C/c2ccccc2)CC1 (stereo in doubt) [Compound 142, 1-[[1-(2,6-dimethylphenyl)-1H-tetrazol-5-yl]-(3-trifluoromethylphenyl)methyl]-4-(3-phenylallyl)piperazine] | ≤ 100 µM | ≤ 100 µM | ≤ 0.1 µM | ≤ 0.1 µM |
| C(=C\c1ccccc1)/CN1CCN([C@@H](c2ccccc2)c2nnnn2CCc2ccccc2)CC1 (racemic) [Compound 35, 1-[(1-phenethyl-1H-tetrazol-5-yl)phenylmethyl]-4-(3-phenylallyl) piperazine] | ≤ 100 µM | ≤ 100 µM | – | – |
| Cc1cccc(C)c1-n1nnnc1[C@H](c1ccccc1OCc1ccccc1)N1CCN(C/C=C/c2ccccc2)CC1 (racemic) [Compound 66, 1-{(2-benzyloxyphenyl)-[1-(2,6-dimethylphenyl)-1H-tetrazol-5-yl]methyl}-4-(3-phenylallyl)piperazine] | – | ≤ 100 µM | – | – |
| Cc1cccc(C)c1-n1nnnc1[C@H](c1ccccc1C#N)N1CCN(C/C=C/c2ccccc2)CC1 (racemic) [Compound 80, 2-{[1-(2,6-dimethylphenyl)-1H-tetrazol-5-yl]-[4-(3-phenylallyl)piperazin-1-yl]methyl}benzonitrile] | ≤ 100 µM | ≤ 100 µM | – | – |
| Cc1cccc(C)c1-n1nnnc1[C@H](c1cccc(Oc2ccc(Cl)c(Cl)c2)c1)N1CCN(C/C=C/c2ccccc2)CC1 (racemic) [Compound 72, 1-{[3-(3,4-dichlorophenoxy)phenyl]-[1-(2,6-dimethylphenyl)-1H-tetrazol-5-yl]methyl}-4-(3-phenylallyl) piperazine] | ≤ 100 µM | ≤ 100 µM | – | – |
| Cc1cccc(C)c1-n1nnnc1[C@H](COCCc1ccccc1)N1CCN(C/C=C/c2ccccc2)CC1 (racemic) [Compound 85, 1-{1-[1-(2,6-dimethylphenyl)-1H-tetrazol-5-yl]-2-phenethyloxyethyl}-4-(3-phenylallyl)piperazine] | – | ≤ 100 µM | – | – |
| Cc1cccc(C)c1-n1nnnc1[C@H](COCc1ccccc1)N1CCN(C/C=C/c2ccccc2)CC1 (racemic) [Compound 69, 1-{2-benzyloxy-1-[1-(2,6-dimethylphenyl)-1H-tetrazol-5-yl]ethyl}-4-(3-phenylallyl)piperazine] | ≤ 100 µM | ≤ 100 µM | – | – |
| Cc1cccc(C)c1-n1nnnc1[C@H](c1ccc(C(F)(F)F)cc1)N1CCN(C/C=C/c2ccccc2)CC1 (racemic) [Compound 63, 1-[[1-(2,6-dimethylphenyl)-1H-tetrazol-5-yl]-(4-trifluoromethylphenyl)methyl]-4-(3-phenylallyl)piperazine] | ≤ 100 µM | ≤ 100 µM | – | – |
| Clc1ccc(CCn2nnnc2[C@H](c2ccccc2)N2CCN(C/C=C/c3ccccc3)CC2)cc1 (racemic) [Compound 39, 1-({1-[2-(4-chlorophenyl)ethyl]-1H-tetrazol-5-yl}phenylmethyl)-4-(3-phenylallyl)piperazine] | ≤ 100 µM | ≤ 100 µM | – | – |
| Cc1cccc(C)c1-n1nnnc1[C@H](c1ccc(F)cc1)N1CCN(C/C=C/c2ccccc2)CC1 (racemic) [Compound 58, 1-[[1-(2,6-dimethylphenyl)-1H-tetrazol-5-yl]-(4-fluorophenyl)methyl]-4-(3-phenylallyl)piperazine] | ≤ 100 µM | ≤ 100 µM | – | – |
| Cc1cccc(C)c1-n1nnnc1[C@H](c1ccc(/C=C/c2ccccc2)cc1)N1CCN(C/C=C/c2ccccc2)CC1 (racemic) [Compound 52, 1-[[1-(2,6-dimethylphenyl)-1H-tetrazol-5-yl]-(4-styrylphenyl)methyl]-4-(3-phenylallyl)piperazirie] | ≤ 100 µM | ≤ 100 µM | – | – |
| Cc1cccc(C)c1-n1nnnc1[C@H](c1cccnc1)N1CCN(C/C=C/c2ccccc2)CC1 (racemic) [Compound 74, 1-{[1-(2,6-dimethylphenyl)-1H-tetrazol-5-yl]pyridin-3-ylmethyl}-4-(3-phenylallyl)piperazine] | ≤ 100 µM | ≤ 100 µM | – | – |
| Cc1cccc(C)c1-n1nnnc1C1(N2CCN(C/C=C/c3ccccc3)CC2)CCN(Cc2ccccc2)CC1 [Compound 91, 1-{1-benzyl-4-[1-(2,6-dimethylphenyl)-1H-tetrazol-5-yl]piperidin-4-yl}-4-(3-phenylallyl)piperazine] | – | ≤ 100 µM | – | – |
| COC(=O)Cn1nnnc1[C@H](c1ccccc1)N1CCN(C/C=C/c2ccccc2)CC1 (racemic) [Compound 16, (5-{phenyl-[4-(3-phenylallyl)piperazin-1-yl]methyl}tetrazol-1-yl)acetic acid methyl ester] | – | ≤ 100 µM | – | – |

From patent US7514438B2, “Melanin concentrating hormone receptor antagonist” (Amgen, Inc., priority 2003, dated 2009)
